Paper PMC11225352, “A multicenter, randomized, double-blind, placebo-controlled ascending dose study to evaluate the safety, tolerability, pharmacokinetics (PK) and pharmacodynamic (PD) effects of Posiphen in subjects with early Alzheimer’s Disease” (Alzheimer's Research & Therapy, 2024)
Marks after values point to notes of the source that are not given here.

Experiments:
[1] = CSF pharmacokinetics of Posiphen and its N1 and N8 metabolites (lumbar catheter sampling, LC-MS); format: in vivo, human; settings: for mean levels averaged over 24 h of CSF sampling: after 21–23 days, early AD
Description: (§1) For the confinement visit, subjects arrived in the early morning after an overnight fast. Physical and neurological examination, vital signs, and assessment of compliance were completed and blood was drawn for safety laboratory tests. An intravenous line and a second line for repeated blood draw were placed. To sample CSF, the intrathecal space was accessed using a Perifix 18G Touhy Epidural Needle (90 mm), and a Polyamide Epidural Catheter (20G Closed Tip) was inserted and fixed in place by an Anesthesiologist. Participants received the last day’s dosing of study drug or placebo. Initial blood and CSF samples were drawn, intravenous infusion of ^13C6-leucine was started and continued for 9 h, during which time subjects received a low leucine diet. Blood and CSF were sampled every 2 h for 36 h. After 36 h, intravenous lines and the CSF catheter were removed, vital signs were measured, physical exam performed, and blood and CSF were sent for routine laboratory studies. […] If postural headache was present, a blood patch was performed. Once stable, participants underwent a brief exam and vital sign check and were discharged. They received a phone call 24 h after discharge to check on their wellbeing.
(§2) For biochemical analysis to derive data for SILK, ^13C6-leucine was analyzed in plasma and CSF by mass spectrometry, and Aβ peptides in CSF were analyzed by immunoprecipitation-mass spectrometry (IP-MS) as previously described, by C2N Diagnostics (St Louis, MO). CSF levels of sAPPα, sAPPβ, Aβ38, 40 and 42 were analyzed by the ADCS Biomarker Core using Mesoscale Discovery (MSD) electrochemiluminescent assays (Mesoscale Discovery, Rockville, MD). Levels of Posiphen and its N1 and N8 metabolites in plasma and CSF were measured by Charles River Laboratories (Montreal, CA) by high-performance liquid chromatographic mass spectrometry, with use of deuterated Posiphen (procured by Charles River Laboratories) as an internal standard.
(§3) A prespecified Statistical Analysis Plan (SAP) was prepared and finalized before the database lock occurred. For safety and tolerability, frequencies of adverse events, serious adverse events and laboratory abnormalities between the participants across the three groups are compared, using Pearson’s χ [2] or ANOVA, as appropriate. Plasma concentration-time data are analyzed by non-compartmental methods using WinNonlin version 6.2.1 or greater. Calculations are based on the actual sampling times recorded during the study. For PK analysis, only the subjects receiving Posiphen are included.
(§4) Noncompartmental pharmacokinetic parameters were estimated using Phoenix WinNonlin v8.3 (Certara, Princeton, NJ). Levels and parameters (Cmax, AUC) of posiphen, n-1 and n-8 metabolites were highly correlated in plasma and CSF. For the BID and TID doses the expected post dose plasma peaks appeared attenuated.

[2] = Plasma pharmacokinetics of Posiphen and its N1 and N8 metabolites (LC-MS, non-compartmental); format: in vivo, human; settings: for AUC0 − 24 in plasma, dose proportionality: between once daily and twice daily dosing; for mean levels averaged over 24 h of CSF sampling / AUC0 − 24 / Cmax / Tmax: plasma; for mean levels averaged over 24 h of CSF sampling: after 21–23 days, early AD
Description: as §1, §2, §3, §4

[3] = test system: Aβ; design: method as in PMID 24828079; settings: mice and cognitively normal humans (aged 18–50), single dose of 60 mg; cited from earlier work
[4] = 60 mg BID (n = 5), geometric mean (% geometric CV)
[5] = 60 mg BID (n = 5), median (min-max)
[6] = 60 mg daily (n = 4; N1: only one participant measurable), geometric mean (% geometric CV)
[7] = 60 mg daily (n = 4; N1: only one participant measurable), median (min-max)
[8] = 60 mg daily (n = 4), geometric mean (% geometric CV)
[9] = 60 mg daily (n = 4), median (min-max)

Structure (SMILES) | mean levels averaged over 24 h of CSF sampling ([1]; 60 mg (n = 5)) | mean levels averaged over 24 h of CSF sampling ([1]; 60 mg BID (n = 5)) | AUC0 − 24 [1, 4] | Cmax [1, 4] | Tmax [1, 5] | mean levels averaged over 24 h of CSF sampling ([1]; 60 mg TID (n = 1)) | AUC0 − 24 [1, 6] | Cmax [1, 6] | Tmax [1, 7] | AUC0 − 24 in plasma, dose proportionality [2] | mean levels averaged over 24 h of CSF sampling ([2]; 60 mg BID (n = 5)) | AUC0 − 24 [2, 4] | Cmax [2, 4] | Tmax [2, 5] | AUC0 − 24 ([2]; 60 mg TID (n = 1)) | Cmax ([2]; 60 mg TID (n = 1)) | Tmax ([2]; 60 mg TID (n = 1)) | mean levels averaged over 24 h of CSF sampling ([2]; 60 mg TID (n = 1)) | AUC0 − 24 [2, 8] | Cmax [2, 8] | other results
CN1c2ccc(OC(=O)Nc3ccccc3)cc2[C@]2(C)CCN[C@H]12 [N1] | 0.02 ± 0.04 ng/mL | 0.28 ± 0.30 ng/mL | 8.75 (83.50) hr*ng/mL | 0.90 (31.32) ng/mL | 12 (4–20) hr | 0.00 ng/mL | 1.33* hr*ng/mL | 0.66* ng/mL | 4* hr | increased approximately proportionally | 3.02 ± 1.40 ng/mL | 65.06 (58.61) hr*ng/mL | 6.96 (32.01) ng/mL | 12 (2–20) hr | 60.18 ng·h/mL | 5.48 ng/mL | 2 h | 2.51 ng/mL | 36.60 (19.24) hr*ng/mL | 5.43 (21.98) ng/mL | Tmax [2, 9]: 2 (2–4) hr; mean levels averaged over 24 h of CSF sampling ([2]; 60 mg once daily (n = 5)): 1.29 ± 0.77 ng/mL
CN(C)CCCC1(c2ccc(F)cc2)OCc2cc(C#N)ccc21 (stereo not drawn) [citalopram] |  |  |  |  |  |  |  |  |  |  |  |  |  |  |  |  |  |  |  |  | Aβ production (SILK) [3]: decreased
CN1CC[C@]2(C)c3cc(OC(=O)Nc4ccccc4)ccc3NC12 (stereo partly drawn) [N8] | 0.35 ± 0.26 ng/mL | 0.77 ± 0.43 ng/mL | 17.88 (58.47) hr*ng/mL | 1.41 (39.33) ng/mL | 12 (4–20) hr | 0.15 ng/mL | 8.91 (47.91) hr*ng/mL | 1.01 (14.14) ng/mL | 4 (2–8) hr | increased approximately proportionally | 5.04 ± 1.80 ng/mL | 113.65 (44.01) hr*ng/mL | 10.01 (27.79) ng/mL | 12 (2–20) hr | 80.40 ng·h/mL | 5.41 ng/mL | 2 h | 3.35 ng/mL | 66.02 (20.83) hr*ng/mL | 6.81 (25.10) ng/mL | AUC0 − 24 ([1]; 60 mg TID (n = 1)): 6.26 ng·h/mL; Cmax ([1]; 60 mg TID (n = 1)): 0.62 ng/mL; Tmax ([1]; 60 mg TID (n = 1)): 12 h; Tmax [2, 9]: 3 (3–4) hr; mean levels averaged over 24 h of CSF sampling ([2]; 60 mg once daily (n = 5)): 2.25 ± 1.36 ng/mL
